In brackets after ≈: the same amount, converted by molar mass.
Tests used:
[1] = tested on: wild-type C. albicans strain (SC5314); assay: Antifungal susceptibility testing (dose-response growth, OD600); format: cell-based, Candida albicans; conditions: for MIC50: Candida albicans
Protocol: A wild-type C. albicans strain (SC5314) was seeded at 1 × 10^4 cells/ml into YNB medium without folate or PABA with the indicated supplements and increasing concentrations of MTX. After 48 h of incubation at 30°C, growth was quantified as the OD600 value and expressed as a percentage of the value for the DMSO-treated control. The values presented here are the average of two replicates and are representative of two independent experiments.
Approximately 1 × 10^4 cells/ml of a wild-type C. albicans strain was seeded into a 96-well plate with increasing concentrations of MTX in YNB pH 5, YNB pH 7, and RPMI pH 7 media. After 48 h, the OD600 was measured and expressed as a percentage of the value for the DMSO-treated control. The results presented here are the averages of two replicates and are representative of two independent experiments.
Stock solutions of MTX were prepared at 10 mM in dimethyl sulfoxide (DMSO) and diluted as needed in the same solvent. […] The final concentration of DMSO was 0.5% for all treatments. Plates were then incubated at 30°C before growth was quantified after 24 and 48 h by measuring the OD600 using a Cytation 5 plate reader (Bio-Tek Instruments, Inc.). MIC50 values were identified visually using the CLSI antifungal susceptibility assay and then confirmed by quantifying growth by the OD600 value. The growth of each strain at each drug concentration was then expressed relative to that of the DMSO-alone control. The susceptibility to MTX at the highest concentration at each pH was compared to that of the other pH values using a two-tailed Student's t test.

[2] = tested on: C. albicans cdr1Δ/Δ, tac1Δ/Δ and mdr1Δ/Δ mutants; assay: Antifungal susceptibility testing of efflux pump mutants; format: cell-based, Candida albicans; conditions: for MIC50: Candida albicans
Protocol: C. albicans cdr1Δ/Δ (A), tac1Δ/Δ (B), or mdr1Δ/Δ (C) strains, or that overexpress CDR1 (A), TAC1 (B), or MDR1 (C) from the PTEF1 promoter, were subcultured to approximately 1 × 10^4 cells/ml into YNB medium at pH 5 or pH 7 supplemented with a range of MTX concentrations. After 48 h at 30°C, growth was quantified as the OD600 value and expressed as a percentage of the value for the untreated wells. The values presented here are the average of two replicates and are representative of two independent experiments. WT, wild type.
(§1) Stock solutions of MTX were prepared at 10 mM in dimethyl sulfoxide (DMSO) and diluted as needed in the same solvent. Each C. albicans strain was grown overnight in YPD medium at 30°C and diluted to approximately 1 × 10^4 cells/ml in YNB medium or RPMI 1640 medium, and 100 μl of each cell suspension was transferred to the wells of a round-bottom 96-well plate. An additional 100 μl of YNB or RPMI 1640 medium containing 2× the final desired concentration of MTX was then added to each well. The final concentration of DMSO was 0.5% for all treatments. Plates were then incubated at 30°C before growth was quantified after 24 and 48 h by measuring the OD600 using a Cytation 5 plate reader (Bio-Tek Instruments, Inc.). MIC50 values were identified visually using the CLSI antifungal susceptibility assay and then confirmed by quantifying growth by the OD600 value. The growth of each strain at each drug concentration was then expressed relative to that of the DMSO-alone control. The susceptibility to MTX at the highest concentration at each pH was compared to that of the other pH values using a two-tailed Student's t test.

Candida glabrata = assay: Antifungal susceptibility testing, other species; format: cell-based; conditions: YNB medium at pH 5 and pH 7
Protocol: (§2) Strains of C. albicans (A), C. glabrata (B), C. tropicalis (C), and C. parapsilosis (D) were seeded into YNB medium buffered at pH 5 or pH 7 at approximately 1 × 10^4 cells/ml in the presence of a range of MTX concentrations. After 48 h at 30°C, growth was quantified as the OD600 and expressed as a percentage of the value for the untreated controls. The values presented here are the average of two replicates and are representative of two experiments. The susceptibility to MTX at the highest concentration at each pH was compared to that of the other pH values using a two-tailed Student's t test (*, P < 0.01; **, P < 0.0001).
as §1

Candida tropicalis = assay: Antifungal susceptibility testing, other species; format: cell-based; conditions: YNB medium at pH 5 and pH 7
Protocol: as §2, §1

Candida parapsilosis = assay: Antifungal susceptibility testing, other species; format: cell-based; conditions: YNB medium at pH 5 and pH 7
Protocol: as §2, §1

Structure (SMILES): CN(Cc1cnc2nc(N)nc(N)c2n1)c1ccc(C(=O)N[C@@H](CCC(=O)O)C(=O)O)cc1 [Methotrexate, methotrexate]
- MIC50 ([1]; SC5314, YNB medium with additional supplements of folic acid (up to 25 μM)): 0.078 µM (≈ 0.0354 µg/mL)
- MIC50 ([1]; SC5314, YNB with addition of 250 μM folinic acid): ~5 µM (≈ 2.27 µg/mL)
- MIC50 ([1]; SC5314, pH 5, YNB pH 5 medium): ~0.78 µM (≈ 0.354 µg/mL)
- MIC50 ([1]; SC5314, pH 7, RPMI 1640 pH 7 medium): > 50 µM
- MIC50 ([1]; SC5314, pH 7, YNB pH 7 medium): > 50 µM
- MIC50 ([1]; SC5314, unbuffered standard YNB medium): ~0.78 µM (≈ 0.354 µg/mL)
- effect of 1 μM DHF, THF or 5MTHF supplement on MTX-mediated growth inhibition ([1]; YNB medium): had no effect
- drop of MIC50 with folic acid supplements ([1]; versus standard YNB medium): ~10 fold
- MIC50 ([2]; pH 5): 0.39 µM (≈ 0.177 µg/mL)
- MIC50 ([2]; pH 7): > 6.25 µM
- susceptibility of mdr1Δ/Δ mutant versus MDR1+ control strains ([2]; YNB medium at pH 5 or 7): not significantly different
- growth inhibition (in words) (Candida glabrata): insensitive at either pH
- growth inhibition (in words) (Candida tropicalis): modest and pH-dependent growth inhibition
- growth inhibition (in words) (Candida parapsilosis): modest and pH-dependent growth inhibition

From PMC7316490, “Dihydrofolate Reductase Is a Valid Target for Antifungal Development in the Human Pathogen Candida albicans” (mSphere, 2020)
